The values below come from US5369114A, “Biphenylene branched alkyleneoxy quinolines” (Imperial Chemical Industries PLC, priority 1990, dated 1994).

Experiment [1] addresses T1, AII receptors (cell surface membrane fraction, guinea pig adrenal gland) (Cavia porcellus, UniProt Q9WV26).
T1 construct: the source of cell surface membranes is the guinea pig adrenal gland; from tissue; host or cells: guinea pig adrenal gland, cell surface membrane fraction
T1 sequence (Q9WV26 1-359): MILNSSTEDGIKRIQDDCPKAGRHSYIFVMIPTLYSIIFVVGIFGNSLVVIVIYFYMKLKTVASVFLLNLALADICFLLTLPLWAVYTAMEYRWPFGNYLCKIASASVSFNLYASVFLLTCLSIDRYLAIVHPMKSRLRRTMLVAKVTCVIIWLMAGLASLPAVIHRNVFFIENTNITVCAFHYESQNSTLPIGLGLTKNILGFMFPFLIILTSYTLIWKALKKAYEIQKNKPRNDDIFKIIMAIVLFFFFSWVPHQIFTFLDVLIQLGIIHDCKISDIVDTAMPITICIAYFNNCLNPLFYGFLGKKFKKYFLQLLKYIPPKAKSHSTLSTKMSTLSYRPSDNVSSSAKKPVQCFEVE
Kind of experiment: Test A: displacement of radiolabelled AII binding from guinea pig adrenal membranes. The settings on record: in vitro, read-out: IC50 (concentration for 50% displacement of radiolabelled AII binding). The procedure:
This in vitro procedure involves the incubation of the test compound initially at a concentration of 100 micromolar (or less) in a buffered mixture containing fixed concentrations of radiolabelled AII and a cell surface membrane fraction prepared from a suitable angiotensin target tissue. In this test, the source of cell surface membranes is the guinea pig adrenal gland which is well known to respond to AII. Interaction of the radiolabelled AII with its receptors (assessed as radiolabel bound to the particulate membrane fraction following removal of unbound radiolabel by a rapid filtration procedure such as is standard in such studies) is antagonized by compounds which also bind to the membrane receptor sites and the degree of antagonism (observed in the test as displacement of membrane-bound radioactivity) is determined readily by comparing the receptor-bound radioactivity in the presence of the test compound at the specified test concentration with a control value determined in the absence of the test compound. Using this procedure compounds showing at least 50% displacement of radiolabelled AII binding at a concentration of 10^-4 M are retested at lower concentrations to determine their potency. […]

The subject of experiment [2] is angiotensin II-induced pressor responses. Briefly: Test C: in vivo antagonism of angiotensin II-induced pressor responses in rats. The settings on record: iv, rat, i.v. administration. The procedure: This in vivo test involves using terminally-anaesthetised or conscious rats in which an arterial catheter has been implanted under anaesthesia for the measurement of changes in blood pressure. The AII antagonistic effects of the test compound following oral or parenteral administration, are assessed against angiotensin II-induced pressor responses. To ensure that the effect is specific, the effect of the test compound on vasopressin-induced pressor responses may also be determined in the same preparation.

The term ED50 denotes the dose at which the effect has come halfway, by size or by number of responders. A lower ED50 goes with an effect at a small dose.

On to `Cc1cc(OC(C)c2ccc(-c3ccccc3-c3nnn[nH]3)cc2)c2ccccc2n1.Cl` (centres unmarked) [Example 1, 2-methyl-4-[1-(2'-(1H-tetrazol-5-yl)biphenyl-4-yl)ethoxy]quinoline hydrochloride], for which the IC50 in experiment [1] was found to be 40 nM. In addition, in experiment [2], it took a dose of 0.18 mg/kg to reach the 50% effect level (ED50).
